Experiments:
CDK9 = biological target: T1, CDK9 (Homo sapiens, UniProt P50750); test: CDK protein degradation activity (Western blotting), CDK9; format: cell-based; conditions: MDA-MB-231 cells, 16 hours, Western blot
T1 construct: endogenous in cells; host or cells: MDA-MB-231
How it was run: (§1)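 Breast cancer line MDA-MB-231, 16 h compound treatment (100 nM–10 μM final, three doses). Immunoblot quantification of CDK2/CDK9 versus tubulin, normalized to DMSO control.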

CDK2 = biological target: T2, CDK2 (Homo sapiens, UniProt P24941); test: CDK protein degradation activity (Western blotting), CDK2; format: cell-based; conditions: MDA-MB-231 cells, 16 hours, Western blot
T2 construct: endogenous in cells; host or cells: MDA-MB-231
How it was run: as §1

T1 sequence (P50750 whole entry): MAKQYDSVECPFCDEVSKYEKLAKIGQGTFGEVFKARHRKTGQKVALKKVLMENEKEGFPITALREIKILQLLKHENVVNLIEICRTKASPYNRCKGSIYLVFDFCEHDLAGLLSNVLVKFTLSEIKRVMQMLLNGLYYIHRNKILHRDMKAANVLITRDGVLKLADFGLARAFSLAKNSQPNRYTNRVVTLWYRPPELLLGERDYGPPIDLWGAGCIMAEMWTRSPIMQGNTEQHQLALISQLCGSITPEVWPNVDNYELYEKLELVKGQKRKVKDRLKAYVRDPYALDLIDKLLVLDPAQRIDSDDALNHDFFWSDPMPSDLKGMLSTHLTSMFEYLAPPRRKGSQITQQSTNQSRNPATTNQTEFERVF

SMILES: Cc1cccc(C(=O)NC2CC(n3cnc4c(NC5CCN(C(=O)CC6CCN(C(=O)CNc7ccc8c(c7)C(=O)N([C@H]7CCC(=O)NC7=O)C8=O)CC6)CC5)ncnc43)C2)n1 (stereo partly drawn) [Compound 51, N-((1s,3s)-3-(6-((1-(2-(1-((2-(2,6-dioxopiperidin-3-yl)-1,3-dioxoisoindolin-5-yl)glycyl)piperidin-4-yl)acetyl)piperidin-4-yl)amino)-9H-purin-9-yl)cyclobutyl)-6-methylpicolinamide]
- Enzyme degradation CDK9 (% remaining) @ 0.1 μM (CDK9): 70%
- Enzyme degradation CDK9 (% remaining) @ 1 μM (CDK9): 0%
- Enzyme degradation CDK9 (% remaining) @ 10 μM (CDK9): 0%
- Enzyme degradation CDK2 (% remaining) @ 0.1 μM (CDK2): 70%
- Enzyme degradation CDK2 (% remaining) @ 1 μM (CDK2): 20%
- Enzyme degradation CDK2 (% remaining) @ 10 μM (CDK2): 20%

SMILES: Cc1cccc(C(=O)NC2CC(n3cnc4c(NCCC5CCN(CC6CCN(c7cccc8c7C(=O)N([C@H]7CCC(=O)NC7=O)C8=O)CC6)CC5)ncnc43)C2)n1 (stereo partly drawn) [Compound 306, N-((1s,3s)-3-(6-((2-(1-((1-(2-(2,6-dioxopiperidin-3-yl)-1,3-dioxoisoindolin-4-yl)piperidin-4-yl)methyl)piperidin-4-yl)ethyl)amino)-9H-purin-9-yl)cyclobutyl)-6-methylpicolinamide]
- Enzyme degradation CDK9 (% remaining) @ 0.1 μM (CDK9): 30%
- Enzyme degradation CDK9 (% remaining) @ 1 μM (CDK9): 0%
- Enzyme degradation CDK9 (% remaining) @ 10 μM (CDK9): 10%
- Enzyme degradation CDK2 (% remaining) @ 0.1 μM (CDK2): 100/100/100%
- Enzyme degradation CDK2 (% remaining) @ 1 μM (CDK2): 100/100/100%
- Enzyme degradation CDK2 (% remaining) @ 10 μM (CDK2): 100/100/100%

SMILES: O=C1CC[C@H](N2C(=O)c3ccc(N4CC(C(=O)N5CCC(CCN6CCN(c7ccc(Nc8ncnc9c8ncn9C8CC(NC(=O)Cc9ccccc9)C8)cc7)CC6)CC5)C4)cc3C2=O)C(=O)N1 (stereo partly drawn) [Compound 328, N-((1s,3s)-3-(6-((4-(4-(2-(1-(1-(2-(2,6-dioxopiperidin-3-yl)-1,3-dioxoisoindolin-5-yl)azetidin-3-carbonyl)piperidin-4-yl)ethyl)piperazin-1-yl)phenyl)amino)-9H-purin-9-yl)cyclobutyl)-2-phenylacetamide]
- Enzyme degradation CDK9 (% remaining) @ 0.1 μM (CDK9): 0/0/0%
- Enzyme degradation CDK9 (% remaining) @ 1 μM (CDK9): 0/0/0%
- Enzyme degradation CDK9 (% remaining) @ 10 μM (CDK9): 0/0/0%
- Enzyme degradation CDK2 (% remaining) @ 0.1 μM (CDK2): 40%
- Enzyme degradation CDK2 (% remaining) @ 1 μM (CDK2): 50%
- Enzyme degradation CDK2 (% remaining) @ 10 μM (CDK2): 40%

SMILES: O=C1CC[C@H](N2C(=O)c3cc(F)c(N4CCC(C(=O)N5CCC(CCN6CCN(c7ccc(Nc8ncnc9c8ncn9[C@H]8C[C@@H](NC(=O)Cc9ccccc9)C8)cc7)CC6)CC5)CC4)cc3C2=O)C(=O)N1 [Compound 457, N-((1s,3s)-3-(6-((4-(4-(2-(1-(1-(2-(2,6-dioxopiperidin-3-yl)-6-fluoro-1,3-dioxoisoindolin-5-yl)piperidin-4-carbonyl)piperidin-4-yl)ethyl)piperazin-1-yl)phenyl)amino)-9H-purin-9-yl)cyclobutyl)-2-phenylacetamide]
- Enzyme degradation CDK9 (% remaining) @ 0.1 μM (CDK9): 20%
- Enzyme degradation CDK9 (% remaining) @ 1 μM (CDK9): 0%
- Enzyme degradation CDK9 (% remaining) @ 10 μM (CDK9): 0%
- Enzyme degradation CDK2 (% remaining) @ 0.1 μM (CDK2): 80%
- Enzyme degradation CDK2 (% remaining) @ 1 μM (CDK2): 60%
- Enzyme degradation CDK2 (% remaining) @ 10 μM (CDK2): 60%

SMILES: O=C1CC[C@H](N2C(=O)c3cc(F)c(N4CCN(CC5CCN(c6ccc(Nc7ncnc8c7ncn8C7CC(NC(=O)c8c(Cl)cccc8Cl)C7)cc6)CC5)CC4)cc3C2=O)C(=O)N1 (stereo partly drawn) [Compound 301, 2,6-dichloro-N-((1s,3s)-3-(6-((4-(4-((4-(2-(2,6-dioxopiperidin-3-yl)-6-fluoro-1,3-dioxoisoindolin-5-yl)piperazin-1-yl)methyl)piperidin-1-yl)phenyl)amino)-9H-purin-9-yl)cyclobutyl)benzamide]
- Enzyme degradation CDK9 (% remaining) @ 0.1 μM (CDK9): 70%
- Enzyme degradation CDK9 (% remaining) @ 1 μM (CDK9): 0%
- Enzyme degradation CDK9 (% remaining) @ 10 μM (CDK9): 0%
- Enzyme degradation CDK2 (% remaining) @ 0.1 μM (CDK2): 30%
- Enzyme degradation CDK2 (% remaining) @ 1 μM (CDK2): 20%
- Enzyme degradation CDK2 (% remaining) @ 10 μM (CDK2): 10%

SMILES: O=C1CC[C@H](N2C(=O)C=C(N3CCC(C(=O)N4CCC5(CC4)CC(N4CCN(c6ccc(Nc7ncnc8c7ncn8C7CC(NC(=O)Cc8ccccc8)C7)cc6)CC4)C5)CC3)C2=O)C(=O)N1 (stereo partly drawn) [Compound 193, N-((1s,3s)-3-(6-((4-(4-(7-(1-(1-(2,6-dioxopiperidin-3-yl)-2,5-dioxo-2,5-dihydro-1H-pyrrol-3-yl)piperidin-4-carbonyl)-7-azaspiro[3.5]nonan-2-yl)piperazin-1-yl)phenyl)amino)-9H-purin-9-yl)cyclobutyl)-2-phenylacetamide]
- Enzyme degradation CDK9 (% remaining) @ 0.1 μM (CDK9): 0%
- Enzyme degradation CDK9 (% remaining) @ 1 μM (CDK9): 10%
- Enzyme degradation CDK9 (% remaining) @ 10 μM (CDK9): 10%
- Enzyme degradation CDK2 (% remaining) @ 0.1 μM (CDK2): 20%
- Enzyme degradation CDK2 (% remaining) @ 1 μM (CDK2): 20%
- Enzyme degradation CDK2 (% remaining) @ 10 μM (CDK2): 10%

SMILES: COc1ccc(C(=O)N2CCC3(CC2)CC(N2CCC(c4ccc(Nc5ncnc6c5ncn6[C@H]5C[C@@H](NC(=O)Cc6ccccc6)C5)cc4)CC2)C3)cc1N1CCC(=O)NC1=O [Compound 286, N-((1s,3s)-3-(6-((4-(1-(7-(3-(2,4-dioxotetrahydropyrimidin-1(2H)-yl)-4-methoxybenzoyl)-7-azaspiro[3.5]nonan-2-yl)piperidin-4-yl)phenyl)amino)-9H-purin-9-yl)cyclobutyl)-2-phenylacetamide]
- Enzyme degradation CDK9 (% remaining) @ 0.1 μM (CDK9): 40%
- Enzyme degradation CDK9 (% remaining) @ 1 μM (CDK9): 30%
- Enzyme degradation CDK9 (% remaining) @ 10 μM (CDK9): 30%
- Enzyme degradation CDK2 (% remaining) @ 0.1 μM (CDK2): 40%
- Enzyme degradation CDK2 (% remaining) @ 1 μM (CDK2): 60%
- Enzyme degradation CDK2 (% remaining) @ 10 μM (CDK2): 70%

SMILES: O=C1CC[C@H](n2nnc3ccc(N4CCC(N5CCN(c6ccc(Nc7ncnc8c7ncn8[C@H]7C[C@@H](NC(=O)Cc8ccccc8)C7)cc6)CC5)CC4)cc3c2=O)C(=O)N1 [Compound 334, N-((1s,3s)-3-(6-((4-(4-(1-(3-(2,6-dioxopiperidin-3-yl)-4-oxo-3,4-dihydrobenzo[d][1,2,3]triazin-6-yl)piperidin-4-yl)piperazin-1-yl)phenyl)amino)-9H-purin-9-yl)cyclobutyl)-2-phenylacetamide]
- Enzyme degradation CDK9 (% remaining) @ 0.1 μM (CDK9): 20%
- Enzyme degradation CDK9 (% remaining) @ 1 μM (CDK9): 10%
- Enzyme degradation CDK9 (% remaining) @ 10 μM (CDK9): 10%
- Enzyme degradation CDK2 (% remaining) @ 0.1 μM (CDK2): 60%
- Enzyme degradation CDK2 (% remaining) @ 1 μM (CDK2): 50%
- Enzyme degradation CDK2 (% remaining) @ 10 μM (CDK2): 50%

SMILES: O=C1CC[C@H](N2C(=O)c3ccc(N4CCC(C(=O)N5CCC6(CC5)CC(N5CCN(c7ccc(Nc8ncnc9c8ncn9C8CC(NC(=O)Cc9ccccc9)C8)cc7)CC5)C6)CC4)cc3C2=O)C(=O)N1 (stereo partly drawn) [Compound 353, N-((1s,3s)-3-(6-((4-(4-(7-(1-(2-(2,6-dioxopiperidin-3-yl)-1,3-dioxoisoindolin-5-yl)piperidin-4-carbonyl)-7-azaspiro[3.5]nonan-2-yl)piperazin-1-yl)phenyl)amino)-9H-purin-9-yl)cyclobutyl)-2-phenylacetamide]
- Enzyme degradation CDK9 (% remaining) @ 0.1 μM (CDK9): 10/10/10%
- Enzyme degradation CDK9 (% remaining) @ 1 μM (CDK9): 10/10/10%
- Enzyme degradation CDK9 (% remaining) @ 10 μM (CDK9): 10/10/10%
- Enzyme degradation CDK2 (% remaining) @ 0.1 μM (CDK2): 70%
- Enzyme degradation CDK2 (% remaining) @ 1 μM (CDK2): 40%
- Enzyme degradation CDK2 (% remaining) @ 10 μM (CDK2): 40%
